In US20220387375A1, “TRPV1 ACTIVATION-MODULATING COMPLEX MIXTURES OF CANNABINOIDS AND/OR TERPENES” (GBS Global Biopharma, Inc., priority 2018, published 2022):

Columns and labels:
Format in all cases: cell-based
TRPV2 = target: T1, TRPV2 (Homo sapiens, UniProt Q9Y5S1); test: Bulk calcium assay (Fluo-4) in HEK cells overexpressing TRPV2
T1 construct: host or cells: HEK TRex293
T1 sequence (Q9Y5S1 1-764): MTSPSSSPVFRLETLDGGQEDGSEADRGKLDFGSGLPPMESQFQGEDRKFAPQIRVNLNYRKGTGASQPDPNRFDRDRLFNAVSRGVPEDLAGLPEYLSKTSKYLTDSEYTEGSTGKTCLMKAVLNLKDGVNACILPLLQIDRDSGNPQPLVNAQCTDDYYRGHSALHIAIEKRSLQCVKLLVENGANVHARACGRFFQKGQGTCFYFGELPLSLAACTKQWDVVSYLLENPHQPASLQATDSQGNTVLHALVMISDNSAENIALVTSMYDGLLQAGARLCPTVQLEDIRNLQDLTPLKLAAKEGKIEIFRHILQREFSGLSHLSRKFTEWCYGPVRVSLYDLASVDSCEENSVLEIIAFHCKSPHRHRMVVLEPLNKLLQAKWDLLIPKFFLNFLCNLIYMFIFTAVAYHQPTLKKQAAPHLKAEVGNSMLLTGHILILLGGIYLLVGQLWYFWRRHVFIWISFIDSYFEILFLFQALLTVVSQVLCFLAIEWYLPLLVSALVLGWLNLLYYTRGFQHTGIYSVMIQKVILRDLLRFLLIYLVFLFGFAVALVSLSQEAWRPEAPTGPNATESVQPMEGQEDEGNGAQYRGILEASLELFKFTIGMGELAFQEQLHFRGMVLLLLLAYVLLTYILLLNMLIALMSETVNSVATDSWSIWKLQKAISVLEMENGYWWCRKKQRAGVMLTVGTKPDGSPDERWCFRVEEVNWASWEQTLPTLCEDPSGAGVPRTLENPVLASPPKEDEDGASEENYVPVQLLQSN
Method: (§1) HEK TRexTRPV1 were cultured in DMEM, 10% Fetal Bovine Serum, 2 mM Lglutamine, 10 μg/ml Blasticidin (Calbiochem, San Diego Calif.), 400 μg/ml Zeocin (InvivoGen, San Diego Calif.), where indicated transgene expression was induced using 1 μg/ml Tetracycline for 16-24 hrs. Unless otherwise indicated, basal expression of TRPV1 without induction was sufficient for these studies, and comparisons were made to untransfected HEK where needed. HEKTRex293 over-expressing human TRPV2, human TRPA1 and human TRPM8 were obtained from SB Drug Discovery (Glasgow, Scotland) and cultured as described above. The cannabinoids and terpenes were assayed in HEK cells that have been transfected with the TRPV1 ion channel protein. These cells are called HEK293-V1 cells.
(§2) Cells were washed and incubated with 0.2 micromolar Fluo-4 for 30 minutes at 37° C. in a standard modified Ringer's solution of the following composition (in mM): NaCl 145, KCl 2.8, CsCl 10, CaCl2 10, MgCl2 2, glucose 10, Hepes·NaOH 10, pH 7.4, 330 mOsm. Cells were transferred to 96-well plates at 50,000 cells/well and stimulated as indicated. Calcium signals were acquired using a Flexstation 3 (Molecular Devices, Sunnydale, USA). Data was analyzed using SoftMax® Pro 5 (Molecular Devices). Where indicated, nomically calcium-free external conditions were achieved by the preparation of 0 mM CaCl2 Ringer solution containing 1 mM EGTA.
(§3) Calcium responses mediated by TRPA1, TRPM8, TRPV2, and TRPV1 were tested by calcium assay in the cell culture system. Cells were washed and incubated with 0.2 μM fluo-4 acetoxymethyl ester (“Fluo-4”) for 30 minutes at 37° C. in a standard modified Ringer's solution of the following composition (in mM): NaCl 145, KCl 2.8, CsCl 10, CaCl2 10, MgCl2 2, glucose 10, Hepes·NaOH 10, pH 7.4, 330 mOsm. Cells were transferred to 96-well plates at 50,000 cells/well and stimulated with 10 μM myrcene diluted in DMSO. Vehicle (DMSO) was used as a negative control. Vehicle traces were subtracted from the myrcene traces for each cell line.
(§4) The potential for different cannabinoids to target specific TRP channels, or to co-target more than one channel type, are of potential therapeutic options for the treatment and management of pain. Comparison of the impacts of a variety of cannabinoid on overexpression systems for TRPV2, TRPM8, and TRPA1 were performed in a side-by-side fashion, under bulk calcium assays where the measurements with each trace representing averaged triplicates of 100,000 cells per sample. As shown in FIGS. 41-43 and summarized in Table 3, there are clear differences in responsiveness between cannabinoids at a single channel type than between channel types to a given cannabinoid.

TRPM8 = target: T2, TRPM8 (Homo sapiens, UniProt Q7Z2W7); test: Bulk calcium assay (Fluo-4) in HEK cells overexpressing TRPM8
T2 construct: host or cells: HEK TRex293
T2 sequence (Q7Z2W7 whole entry): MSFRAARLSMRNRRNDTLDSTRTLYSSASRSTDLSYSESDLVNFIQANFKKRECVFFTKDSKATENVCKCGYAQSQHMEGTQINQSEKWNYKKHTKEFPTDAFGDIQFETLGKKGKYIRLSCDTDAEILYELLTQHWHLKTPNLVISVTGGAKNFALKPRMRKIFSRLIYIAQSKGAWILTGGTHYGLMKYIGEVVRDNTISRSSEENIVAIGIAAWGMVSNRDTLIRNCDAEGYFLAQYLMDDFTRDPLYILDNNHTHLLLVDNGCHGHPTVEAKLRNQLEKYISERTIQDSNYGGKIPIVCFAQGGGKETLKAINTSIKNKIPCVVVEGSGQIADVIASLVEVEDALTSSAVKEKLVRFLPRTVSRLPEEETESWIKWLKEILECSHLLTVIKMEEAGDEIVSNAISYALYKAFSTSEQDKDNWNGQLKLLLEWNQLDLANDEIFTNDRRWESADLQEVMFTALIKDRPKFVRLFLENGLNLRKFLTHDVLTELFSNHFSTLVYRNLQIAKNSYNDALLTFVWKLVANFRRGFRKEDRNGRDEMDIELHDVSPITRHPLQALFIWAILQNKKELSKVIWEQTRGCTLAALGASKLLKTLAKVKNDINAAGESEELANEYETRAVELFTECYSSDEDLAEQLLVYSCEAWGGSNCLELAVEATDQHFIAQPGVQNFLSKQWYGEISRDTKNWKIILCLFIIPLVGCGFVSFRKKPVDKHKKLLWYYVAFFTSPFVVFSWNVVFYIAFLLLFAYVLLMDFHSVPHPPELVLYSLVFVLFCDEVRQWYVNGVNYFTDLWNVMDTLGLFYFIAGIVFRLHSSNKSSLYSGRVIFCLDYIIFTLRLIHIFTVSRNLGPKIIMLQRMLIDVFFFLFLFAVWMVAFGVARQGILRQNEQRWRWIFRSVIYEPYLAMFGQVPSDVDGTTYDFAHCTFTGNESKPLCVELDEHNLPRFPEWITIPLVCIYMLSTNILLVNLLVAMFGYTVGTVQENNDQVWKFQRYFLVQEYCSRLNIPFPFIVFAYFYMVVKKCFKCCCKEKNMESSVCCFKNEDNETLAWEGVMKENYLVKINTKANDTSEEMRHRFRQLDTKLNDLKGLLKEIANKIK
Method: as §1, §2, §3, §4

TRPA1 = target: T3, TRPA1 (Homo sapiens, UniProt O75762); test: Bulk calcium assay (Fluo-4) in HEK cells overexpressing TRPA1
T3 construct: host or cells: HEK TRex293
T3 sequence (O75762 whole entry): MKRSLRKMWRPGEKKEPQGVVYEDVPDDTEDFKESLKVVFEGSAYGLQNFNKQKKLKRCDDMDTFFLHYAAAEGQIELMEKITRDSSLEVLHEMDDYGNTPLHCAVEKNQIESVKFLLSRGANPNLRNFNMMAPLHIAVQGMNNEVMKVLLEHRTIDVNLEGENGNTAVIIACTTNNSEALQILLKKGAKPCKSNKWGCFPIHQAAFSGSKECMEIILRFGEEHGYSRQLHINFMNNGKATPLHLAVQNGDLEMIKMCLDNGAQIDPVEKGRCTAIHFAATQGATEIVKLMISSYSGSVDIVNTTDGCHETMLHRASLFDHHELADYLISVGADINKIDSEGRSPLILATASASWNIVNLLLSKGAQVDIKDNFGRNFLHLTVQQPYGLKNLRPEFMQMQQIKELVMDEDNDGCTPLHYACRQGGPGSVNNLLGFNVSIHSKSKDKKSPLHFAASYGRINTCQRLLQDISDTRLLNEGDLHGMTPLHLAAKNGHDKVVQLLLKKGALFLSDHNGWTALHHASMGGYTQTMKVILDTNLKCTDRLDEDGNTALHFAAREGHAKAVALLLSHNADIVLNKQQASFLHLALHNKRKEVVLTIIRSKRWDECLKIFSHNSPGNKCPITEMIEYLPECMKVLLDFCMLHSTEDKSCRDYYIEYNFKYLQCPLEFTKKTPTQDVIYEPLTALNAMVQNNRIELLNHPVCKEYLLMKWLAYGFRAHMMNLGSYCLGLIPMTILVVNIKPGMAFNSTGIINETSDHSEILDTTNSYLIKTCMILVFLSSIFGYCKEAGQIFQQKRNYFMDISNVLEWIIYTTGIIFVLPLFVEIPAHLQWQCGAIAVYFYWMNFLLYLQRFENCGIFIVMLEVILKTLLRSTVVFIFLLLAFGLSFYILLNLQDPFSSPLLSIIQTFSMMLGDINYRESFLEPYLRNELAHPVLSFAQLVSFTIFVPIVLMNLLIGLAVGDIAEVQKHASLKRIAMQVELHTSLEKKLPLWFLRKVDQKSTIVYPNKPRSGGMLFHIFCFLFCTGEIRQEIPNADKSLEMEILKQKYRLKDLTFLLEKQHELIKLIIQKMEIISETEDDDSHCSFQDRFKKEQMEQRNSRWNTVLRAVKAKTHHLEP
Method: as §1, §2, §3, §4

WT HEK293 = test: Bulk calcium assay in untransfected WT HEK293; details: 10 μM, 1 mM external Ca2+

## C=C(C)[C@@H]1CCC(C)=C[C@H]1c1c(O)cc(CCCCC)cc1O [CBD, Cannabidiol]
TRPV2
  mean maximal Ca^2+ signal RFU achieved 0-180 s (SD), TRPV1: 12.53 (0.28) RFU
TRPM8
  mean maximal Ca^2+ signal RFU achieved 0-180 s (SD), TRM8: 1.12 (0.02) RFU
TRPA1
  mean maximal Ca^2+ signal RFU achieved 0-180 s (SD), TRPA1: 1.28 (0.03) RFU

## C=C(C)[C@@H]1CCC(C)=C[C@H]1c1c(O)cc(CCC)cc1O [CBDV, Cannabidivarin]
TRPV2
  mean maximal Ca^2+ signal RFU achieved 0-180 s (SD), TRPV1: 13.07 (0.03) RFU
TRPM8
  mean maximal Ca^2+ signal RFU achieved 0-180 s (SD), TRM8: 3.89 (0.05) RFU
WT HEK293
  calcium response of WT HEK293: responding slightly
TRPA1
  mean maximal Ca^2+ signal RFU achieved 0-180 s (SD), TRPA1: 16.17 (2.68) RFU

## CCCCCc1cc(O)c(C/C=C(\C)CCC=C(C)C)c(O)c1 [CBG, Cannabigerol]
TRPV2
  mean maximal Ca^2+ signal RFU achieved 0-180 s (SD), TRPV1: 2.19 (0.62) RFU
TRPM8
  mean maximal Ca^2+ signal RFU achieved 0-180 s (SD), TRM8: 2.25 (0.46) RFU
TRPA1
  mean maximal Ca^2+ signal RFU achieved 0-180 s (SD), TRPA1: 10.22 (1.29) RFU

## CCCCCc1cc(O)c2c(c1)OC(C)(C)c1ccc(C)cc1-2 [CBN, Cannabinol]
TRPV2
  mean maximal Ca^2+ signal RFU achieved 0-180 s (SD), TRPV1: 4.03 (0.64) RFU
TRPM8
  mean maximal Ca^2+ signal RFU achieved 0-180 s (SD), TRM8: 0.09 (0.01) RFU
TRPA1
  mean maximal Ca^2+ signal RFU achieved 0-180 s (SD), TRPA1: 10.97 (0.4) RFU
